Where “and” joins values, the source holds several entries; their conditions need not be identical. Equal entries are not always repeated. Where two headings read alike, the source gives them in different places.
Assays:
PDE-5A = PDE-5A (Homo sapiens (Human), UniProt O76074); test: Caliper Mobility-Shift PDE-5A Assay; assay type: biochemical
Protocol: Caliper Mobility-Shift PDE-5A Assay:
A sample to be tested is precisely weighed, dissolved by adding DMSO, mixed sufficiently to form 10 mM solution.
The maximum final concentration of the compound was 10 μM. After incubation at 30° C. for 1 h, 20 μl of 70 μM EDTA was added to terminate reaction. Substrate and products were separated and analyzed by electrophoresis. Conversion rate was calculated by Caliper's Reviewer software, and inhibition rate was calculated by the following formulation, and IC50 was calculated from inhibition rate using Prism 5.0. Inhibition rate=[conversion rate (ZPE)−conversion rate (sample)]×100/[conversion rate (ZPE)−conversion rate (HPE)]
Notation: HPE: blank control without adding enzyme; ZPE: blank control without adding compound.

New Zealand rabbits = test: Effects on penis length (AUC) by intravenous administration in New Zealand rabbits; assay type: in vivo; details: 10 mg/kg IV, sodium nitroprusside 0.2 mg/kg IV 5 min after administration
Excerpt: New Zealand rabbits were subjected to adapt environment, and the rabbits were catched everyday before experiment so that the rabbits were used to repeated catching operation, then administration and stimulation were lunched. The animals were randomly divided according to bodyweight, samples to be tested were separately dissolved with solvent (Table 3 group: Avanafil and Compound 19 were separately dissolved with 5% DMSO+30% Cremophor EL+65% water for injection; Table 4 group, Table 5 group: Avanafil, Compound 14, Compound 17 and Compound 7 were separately dissolved with 45% DMA+20% Cremophor EL+35% water for injection; Table 6 group: Avanafil and Compound 15 were separately dissolved with 30% DMF+50% PEG-400+20% water for injection), corresponding samples to be tested were injected via ear flange veins of these groups, Table 3, Table 4, Table 5, Table 6 groups all had dose of 10 mg/kg, administration volume of 2 ml/kg, 0.2 mg/kg of sodium nitroprusside was intravenously injected in administration volume of 0.5 ml/kg after 5 min of administration.
Lengths of penis of rabbits were measured by digital vernier caliper separately before administration and at 5, 10, 15, 30, 50, 60, 90 and 120 min after administration. During each measurement, touching between penis and vernier caliper should be avoided.

PDE-6 = details: background art, cited from earlier work
[1] = cited from earlier work
PDE-11 = PDE-11 (Homo sapiens (Human), UniProt Q9HCR9); details: background art; cited from earlier work
[2] = Determination of half-life in SD rats (IV and PO, plasma LC-MS/MS); details: Sprague-Dawley (SD), rat
Protocol: (§1) Avanafil as control drug and the compounds of the present invention (self-made) were dissolved with suitable solvents.
Instruments: API4000 LC-MS/MS
(§2) Chromatography column: Agilent XDB C18 (2.1×50 mm, 5 μm)
(§3) Blood sampling in rats: animals were fixed, tails were heated with water-bath at 10 min before each time point, about 100 μl of blood was collected via caudal vein, and the collected blood samples were placed in heparin sodium-containing anticoagulation tubes. The blood samples were centrifuged at 4° C. and 8,000 rpm for 6 min to obtain blood plasma samples, in which the blood plasma samples should be prepared with 30 min after blood sampling. The blood plasmas were stored in refrigerator with −80° C.
(§4) (1) Samples to be tested were taken out from refrigerator (−80° C.), melt at room temperature, then subjected to volution for 5 min;
(§5) (2) 20 μl of sample was precisely moved to 1.5 ml centrifuge tube;
(§6) (3) 200 μl of internal standard solution was added;
(§7) (4) After 5 min of volution, 5 min of centrifugation (12,000 rpm) was carried out;
(§8) (5) 100 μl of supernatant was precisely taken, 100 μl of water was added, subjected to volution for 5 min, and analyzed by LC-MS/MS.
(§9) Concentrations of samples to be tested (blood plasma samples) were the output results of Analyst 1.5.1 of AB SCIEX (Shanghai Aibocaisi Analytical Instruments Trading Co., Ltd.). Mean values, standard deviations and parameters such as variable coefficients were calculated by Microsoft Excel (when parameters were directly given by Analyst 1.5.1, they were not calculated). PK parameters were calculated using Pharsight Phoenix 6.1 software.

[3] = rat, in vivo, 2 mg/kg
Protocol: as §1
Instruments: API4000 LC-MS/MS
as §2, §3, §4, §5, §6, §7, §8, §9

in vivo = details: Sprague-Dawley (SD), rat, iv, 1 mg/kg
Protocol: as §1
Instruments: API4000 LC-MS/MS
as §2, §3, §4, §5, §6, §7, §8, §9

[4] = Table 3 group, 5% DMSO+30% Cremophor EL+65% water for injection
[5] = Table 4 group, 45% DMA+20% Cremophor EL+35% water for injection
[6] = Table 5 group, 45% DMA+20% Cremophor EL+35% water for injection
[7] = Table 6 group, 30% DMF+50% PEG-400+20% water for injection
[8] = test compound, read-out: IC50 values for PDE-5A, PDE-5A

PDE-11, sequence (Q9HCR9 whole entry): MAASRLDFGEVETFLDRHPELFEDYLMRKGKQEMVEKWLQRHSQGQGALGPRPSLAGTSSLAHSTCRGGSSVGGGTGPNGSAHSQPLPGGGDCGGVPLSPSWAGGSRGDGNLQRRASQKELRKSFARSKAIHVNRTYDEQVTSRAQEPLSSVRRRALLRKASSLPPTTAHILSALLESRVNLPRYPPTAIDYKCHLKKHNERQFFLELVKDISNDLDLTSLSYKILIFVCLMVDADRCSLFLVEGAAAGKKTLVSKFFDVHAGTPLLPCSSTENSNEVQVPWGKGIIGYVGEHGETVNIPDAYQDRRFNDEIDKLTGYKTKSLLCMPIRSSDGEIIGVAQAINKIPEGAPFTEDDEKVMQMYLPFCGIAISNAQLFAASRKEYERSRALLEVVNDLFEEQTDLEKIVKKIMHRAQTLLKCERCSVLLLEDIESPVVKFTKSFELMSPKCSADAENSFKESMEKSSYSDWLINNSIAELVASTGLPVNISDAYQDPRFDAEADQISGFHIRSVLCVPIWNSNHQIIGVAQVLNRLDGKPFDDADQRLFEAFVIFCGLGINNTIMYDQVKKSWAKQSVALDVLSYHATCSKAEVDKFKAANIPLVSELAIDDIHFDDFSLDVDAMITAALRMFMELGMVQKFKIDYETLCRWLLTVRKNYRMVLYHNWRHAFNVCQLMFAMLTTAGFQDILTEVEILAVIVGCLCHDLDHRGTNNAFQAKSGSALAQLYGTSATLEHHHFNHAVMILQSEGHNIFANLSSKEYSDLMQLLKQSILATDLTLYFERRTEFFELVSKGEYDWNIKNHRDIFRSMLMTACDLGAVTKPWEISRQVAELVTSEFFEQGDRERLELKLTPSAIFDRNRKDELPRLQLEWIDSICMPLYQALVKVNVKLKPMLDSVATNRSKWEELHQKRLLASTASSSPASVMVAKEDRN

| SMILES | IC50 (PDE-5A; [8]) [nM] | half-life ([2]; iv, 1 mg/kg) [h] | further results |
| --- | --- | --- | --- |
| COc1ccc(CN=c2[nH]c(N3CCC[C@H]3CO)ncc2C(=O)NCc2ncccn2)cc1Cl [Avanafil, reference compound] |  |  | IC50 (PDE-5A; Avanafil control value given, read-out: IC50 values for PDE-5A, Avanafil/PDE-5A): 10.8 nM (11×) and 19.2 nM and 12.7 nM (2×) and 17.3 nM (4×); Effects on penis length, AUC (mm × min) (New Zealand rabbits; [4]): 155.1 mm × min; Effects on penis length, AUC (mm × min) (New Zealand rabbits; [5]): 132.3 mm × min; Effects on penis length, AUC (mm × min) (New Zealand rabbits; [6]): 168.3 mm × min; Effects on penis length, AUC (mm × min) (New Zealand rabbits; [7]): 146.4 mm × min; ratio of PDE-6/5 (PDE-6; selectivity): about 120; half-life in human body [1]: about 1.2 h; inhibition of PDE-11 (PDE-11): does not inhibit PDE-11; half-life ([2]; iv, 2 mg/kg): 0.53 h; half-life ([2]; po, 2 mg/kg): 0.51 h |
| CCCc1nc(C)c2c(=O)[nH]c(-c3cc(S(=O)(=O)N4CCN(CC)CC4)ccc3OCC)nn12 [Vardenafil] |  |  | inhibition of PDE-6 (PDE-6): inhibit PDE-6 to some extent |
| COc1ccc(COc2nc(N3CCC4(CC4)C3)ncc2C(=O)NCc2ccccc2)cc1Cl [Compound 15, N-benzyl-4-(3-chloro-4-methoxybenzyloxy)-2-(5-azaspiro[2.4]heptan-5-yl)-pyrimidine-5-carboxamide] | 0.119 | 3.32 | Effects on penis length, AUC (mm × min) (New Zealand rabbits; [7]): 339.3 mm × min |
| COc1ccc(COc2nc(N3CC4CC4C3)ncc2C(=O)NCc2cnc(C)cn2)cc1Cl (stereo not drawn) [Compound 5, 2-(3-azadicyclo[3.1.0]hexan-3-yl)-4-(3-chloro-4-methoxy-benzyloxy)-N-[(5-methylpyrazin-2-yl)methyl]pyrimidine-5-carboxamide] | 0.529 |  |  |
| CN1CC(=O)N2[C@H](c3ccc4c(c3)OCO4)c3[nH]c4ccccc4c3C[C@@H]2C1=O [Tadalafil] |  |  | half-life in human body [1]: about 16 h |
| COc1ccc(COc2nc(N3CCC4(CC3)CC4)ncc2C(=O)NCCN2CCOCC2)cc1Cl [Compound 11, 4-(3-chloro-4-methoxybenzyloxy)-N-(2-morpholinylethyl)-2-(6-azaspiro[2.5]octan-6-yl)pyrimidine-5-carboxamide] | 0.935 |  |  |
| CCCc1nn(C)c2c(=O)[nH]c(-c3cc(S(=O)(=O)N4CCN(C)CC4)ccc3OCC)nc12 [Sildenafil] |  |  | inhibition of PDE-6 (PDE-6): inhibit PDE-6 to some extent |
| COc1ccc(COc2nc(N3CCCC34CC4)ncc2C(=O)N[C@H]2CC[C@H](O)CC2)cc1Cl [Compound 20, 4-(3-chloro-4-methoxybenzyloxy)-N-[(trans)-4-hydroxycyclohexyl]-2-(4-azaspiro[2.4]heptan-4-yl)pyrimidine-5-carboxamide] |  | 0.87 |  |
| COc1ccc(COc2nc(N3CCC4(CC3)CC4)ncc2C(=O)N[C@H]2CC[C@H](O)CC2)cc1Cl [Compound 12, 4-(3-chloro-4-methoxybenzyloxy)-N-[(trans)-4-hydroxycyclohexyl]-2-(6-azaspiro[2.5]octan-6-yl)pyrimidine-5-carboxamide] | 0.719 | 1.44 | half-life ([2]; po, 1 mg/kg): 1.94 h |
| COc1ccc(COc2nc(N3CCC4(CC3)CC4)ncc2C(=O)NCc2ncccn2)cc1Cl [Compound 8, 4-(3-chloro-4-methoxybenzyloxy)-N-(pyrimidin-2-ylmethyl)-2-(6-azaspiro[2.5]octan-6-yl)pyrimidine-5-carboxamide] | 0.476 | 1.34 |  |
| COc1ccc(COc2nc(N3CCC4(CC4)C3)ncc2C(=O)N[C@H]2CC[C@H](O)CC2)cc1Cl [Compound 19, 4-(3-chloro-4-methoxybenzyloxy)-N-[(trans)-4-hydroxycyclohexyl]-2-(5-azaspiro[2.4]heptan-5-yl)-pyrimidine-5-carboxamide] | 4.08 | 1.17 | Effects on penis length, AUC (mm × min) (New Zealand rabbits; [4]): 523.3 mm × min; half-life ([2]; po, 2 mg/kg): 1.97 h |
| COc1ccc(COc2nc(N3CC4CC4C3)ncc2C(=O)NCc2ccc(F)cc2)cc1Cl (stereo not drawn) [Compound 6, 2-(3-azadicyclo[3.1.0]hexan-3-yl)-4-(3-chloro-4-methoxy-benzyloxy)-N-(4-fluorobenzyl)pyrimidine-5-carboxamide] | 0.075 | 1.74 |  |
| COc1ccc(COc2nc(N3CC4CC4C3)ncc2C(=O)N[C@H]2CC[C@H](O)CC2)cc1Cl (stereo partly drawn) [Compound 7, 2-(3-azadicyclo[3.1.0]hexan-3-yl)-4-(3-chloro-4-methoxy-benzyloxy)-N-[(trans)-4-hydroxycyclohexyl]pyrimidine-5-carboxamide] | 0.739 |  | Effects on penis length, AUC (mm × min) (New Zealand rabbits; [6]): 191.5 mm × min; half-life ([2]; iv, 2 mg/kg): 1.02 h; half-life ([2]; po, 4 mg/kg): 1.59 h |
| COc1ccc(COc2nc(N3CCC4(CC4)C3)ncc2C(=O)NCc2ccc(F)cc2)cc1Cl [Compound 17, 4-(3-chloro-4-methoxybenzyloxy)-N-(4-fluorobenzyl)-2-(5-azaspiro[2.4]heptan-5-yl)pyrimidine-5-carboxamide] | 2.08 | 1.64 | Effects on penis length, AUC (mm × min) (New Zealand rabbits; [5]): 300.9 mm × min; half-life ([2]; po, 2 mg/kg): 3.26 h |
| COc1ccc(COc2nc(N3CC4CC4C3)ncc2C(=O)NCc2ccccc2)cc1Cl (stereo not drawn) [Compound 1, N-benzyl-2-(3-azadicyclo[3.1.0]hexan-3-yl)-4-(3-chloro-4-methoxybenzyloxy) pyrimidine-5-carboxamide] | 0.172 | 3.96 |  |
| COc1ccc(COc2nc(N3CC4CC4C3)ncc2C(=O)NCc2ccccn2)cc1Cl (stereo not drawn) [Compound 4, 2-(3-azadicyclo[3.1.0]hexan-3-yl)-4-(3-chloro-4-methoxybenzyloxy)-N-(pyridin-2-ylmethyl)pyrimidine-5-carboxamide] | 0.028 | 0.66 |  |
| COc1ccc(COc2nc(N3CC4CC4C3)ncc2C(=O)NCCN2CCOCC2)cc1Cl (stereo not drawn) [Compound 13, 2-(3-azadicyclo[3.1.0]hexan-3-yl)-4-(3-chloro-4-methoxy-benzyloxy)-N-(2-morpholinylethyl)pyrimidine-5-carboxamide] | 0.213 |  |  |
| COc1ccc(COc2nc(N3C4CCC3COC4)ncc2C(=O)NCc2ccccc2)cc1Cl [Compound 2, N-benzyl-2-(3-oxa-8-azadicyclo[3.2.1]octan-8-yl)-4-(3-chloro-4-methoxybenzyloxy)pyrimidine-5-carboxamide] | 4.01 |  | t1/2 (h) PO [3]: No; half-life (in vivo): 1.51 h |
| COc1ccc(COc2nc(N3CCC4(CC3)CC4)ncc2C(=O)NCc2ccccc2)cc1Cl [Compound 10, N-benzyl-4-(3-chloro-4-methoxybenzyloxy)-2-(6-azaspiro[2.5]octan-6-yl)pyrimidine-5-carboxamide] | 1.14 | 2.35 |  |
| COc1ccc(COc2nc(N3CCC4(CC3)CC4)ncc2C(=O)NCc2ccccn2)cc1Cl [Compound 9, 4-(3-chloro-4-methoxybenzyloxy)-N-(pyridin-2-ylmethyl)-2-(6-azaspiro[2.5]octan-6-yl)pyrimidine-5-carboxamide] | 0.186 |  |  |
| COc1ccc(COc2nc(N3CC4CC4C3)ncc2C(=O)NCc2ncccn2)cc1Cl (stereo not drawn) [Compound 3, 2-(3-azadicyclo[3.1.0]hexan-3-yl)-4-(3-chloro-4-methoxy-benzyloxy)-N-(pyrimidin-2-ylmethyl)pyrimidine-5-carboxamide] | 0.1 |  |  |
| COc1ccc(COc2nc(N3CCCC34CC4)ncc2C(=O)NCc2ccccc2)cc1Cl [Compound 14, N-benzyl-4-(3-chloro-4-methoxybenzyloxy)-2-(4-azaspiro[2.4]heptan-4-yl)-pyrimidine-5-carboxamide] | 1.98 | 2.21 | Effects on penis length, AUC (mm × min) (New Zealand rabbits; [6]): 290.1 mm × min |
| COc1ccc(COc2nc(N3CCC4(CC4)C3)ncc2C(=O)NCc2ncccn2)cc1Cl [Compound 18, 4-(3-chloro-4-methoxybenzyloxy)-N-(pyrimidin-2-ylmethyl)-2-(5-azaspiro[2.4]heptan-5-yl)-pyrimidine-5-carboxamide] | 1.44 |  |  |
